Measurements reported in patent publication US11602530B2, “CRM1 inhibitors for treating epilepsy” (Biogen MA Inc., priority 2016, dated 2023).

Columns and labels:
male NMRI mice = test: Pilocarpine model of temporal lobe epilepsy (TLE), spontaneous recurrent seizures; type: in vivo; details: for reduction in seizure activity: 7.5 mg/kg per os every other day for two weeks
Method: FIG. 1 is a description of a pilocarpine model of temporal lobe epilepsy (TLE) in male NMRI mice. The treatment phase was compound E-1 in Table I administered at 7.5 mg/kg per os or vehicle, every other day for the two week treatment period. Vehicle was 0.6% plasdone PVP K29/32 and 0.6% poloxamer Pluronic F68 in water.
A well-established pilocarpine model of temporal lobe epilepsy (TLE) that has been recently optimized for mice can be used (Mazzuferi et al., Exp. Neurol. 238:156-67). Status epilepticus (SE) can be initiated with a single 300 mg/kg intraperitoneal (i.p.) injection of pilocarpine in male NMRI mice, 30 min after N-methylscopolamine bromide administration (1 mg/kg; i.p.). Within 10 to 45 min after pilocarpine treatment, animals display generalized tonic-clonic seizures that progress to continuous convulsive activity, i.e. SE. To limit the duration of SE, mice can be injected with a bolus dose of diazepam (10 mg/kg; i.p.) after 3 h. The mice typically show spontaneous recurrent seizures within few days after SE and continue to display them throughout their lifetime.
A separate cohort of animals (for example, n=40) can then undergo continuous monitoring for spontaneous recurrent seizures during 28 consecutive days beginning 8-10 weeks following pilocarpine induced SE. The seizure monitoring can be performed by simultaneous recording of locomotor activity with a 3D accelerometer and video. This system allows for automated detection of behavioral seizures by analysis of the accelerometry signal. All behavioral seizures can be scored according to the Racine's protocol after detailed review of corresponding video clips by experienced technical personnel. Secondary generalized seizures, a Racine's score of 3-5, will be quantified and used for calculation of total seizure counts. […]

[1] = Body weight of treated mice in the pilocarpine TLE model; type: in vivo; details: 7.5 mg/kg per os every other day for two weeks
Method: Following the general procedure described in Example 1 and outlined in FIG. 1, Compound E1 of Table I was administered to mice during the treatment phase at 7.5 mg/kg per os every other day for the two weeks of treatment.

## CC(C)(C)C(=O)NNC(=O)/C=C\n1cnc(-c2cc(C(F)(F)F)cc(C(F)(F)F)c2)n1 [Compound E-1, (Z)-3-(3-(3,5-bis(trifluoromethyl)phenyl)-1H-1,2,4-triazol-1-yl)-N′-pivaloylacrylohydrazide]
Male NMRI mice; a significant number of mice, chronic administration (FIG. 4)
  reduction in seizure occurrence in comparison to vehicle treated mice: 50%
Male NMRI mice; all treated mice (24 dosed)
  reduction in seizure activity: ≥ 50%
Male NMRI mice; six of the treated mice
  reduction in seizure activity: 100%
[1]
  change in body weight of the treated mice: no change
